In US6664256B1, “Phenylpyridazine compounds and medicines containing the same” (Kowa Co., Ltd., priority 2000, dated 2003):

System: not given
Experiment: not given
Conditions: not given

Row | melting point [°C] | Compound
1 | 155.2 to 156.6 | COc1ccc(-c2nnc(Oc3cccc(F)c3F)cc2-c2ccccc2)cc1 [Example 25, 6-(2,3-difluorophenoxy)-3-(4-methoxyphenyl)-4-phenylpyridazine]
2 | 169 to 169.9 | COc1ccc(-c2nnc(Oc3ccc(F)cc3F)cc2-c2ccccc2)cc1 [Example 26, 6-(2,4-difluorophenoxy)-3-(4-methoxyphenyl)-4-phenylpyridazine]
3 | 130.9 to 131.4 | CSc1ccc(-c2nnc(Cl)cc2-c2ccc(F)cc2)cc1 [Example 28, 6-chloro-4-(4-fluorophenyl)-3-[4-(methylthio)phenyl]pyridazine]
4 | 140.6 to 143.4 | CSc1ccc(-c2nnc(Oc3ccc(F)cc3F)cc2-c2ccc(F)cc2)cc1 [Example 29, 6-(2,4-difluorophenoxy)-4-(4-fluorophenyl)-3-[4-(methylthio)phenyl]pyridazine]
5 | 145 to 145.8 | CSc1ccc(-c2nnc(Cl)cc2-c2ccc(Cl)cc2)cc1 [Example 31, 6-chloro-4-(4-chlorophenyl)-3-[4-(methylthio)phenyl]pyridazine]
6 | 53.3 to 56.2 | CSc1ccc(-c2nnc(Sc3ccccc3)cc2-c2ccc(Sc3ccccc3)cc2)cc1 [Example 32, 3-[4-(methylthio)phenyl]-6-phenylthio-4-[4-(phenylthio)phenyl]pyridazine]
7 | 163.2 to 164 | CSc1ccc(-c2nnc(Oc3ccc(F)cc3F)cc2-c2ccc(Cl)cc2)cc1 [Example 33, 4-(4-chlorophenyl)-6-(2,4-difluorophenoxy)-3-[4-(methylthio)phenyl]pyridazine]
8 | 115.2 to 117.3 | CS(=O)(=O)c1ccc(-c2nnc(Oc3ccc(F)cc3F)cc2-c2ccc(Cl)cc2)cc1 [Example 34, 4-(4-chlorophenyl)-6-(2,4-difluorophenoxy)-3-[4-(methylsulfonyl)phenyl]pyridazine]
9 | 125.4 to 126.3 | COc1ccc(-c2cc(NCc3ccccc3)nnc2-c2ccc(OC)cc2)cc1 [Example 41, 6-benzylamino-3,4-bis(4-methoxyphenyl)pyridazine]
10 | 165.8 to 169.5 | CSc1ccc(-c2nnc(SC)cc2-c2ccc(F)cc2)cc1 [Example 46, 4-(4-fluorophenyl)-6-methylthio-3-[4-(methylthio)phenyl]pyridazine]
11 | 205 to 209 | Cc1cc(-c2ccc(Cl)cc2)c(-c2ccc(S(C)(=O)=O)cc2)nn1 [Example 50, 4-(4-chlorophenyl)-6-methyl-3-[4-(methylsulfonyl)phenyl]pyridazine]
12 | 157.7 to 158.3 | CSc1ccc(-c2nnc(Cl)cc2-c2ccccc2)cc1 [Example 59, 6-chloro-3-[4-(methylthio)phenyl]-4-phenylpyridazine]
13 | 189.6 to 190.5 | CS(=O)(=O)c1ccc(-c2nnc(Cl)cc2-c2ccc(Cl)cc2)cc1 [Example 60, 6-chloro-4-(4-chlorophenyl)-3-[4-(methylsulfonyl)phenyl]pyridazine]

System: interleukin-1β production
Experiment: Inhibitory activity against interleukin-1β production (LPS-stimulated HL-60 cells, ELISA)
Type: cell-based
Conditions: Homo sapiens, 72 h, lipopolysaccharide 10 μg/ml, culturing for 3 days, interleukin-1β determined by ELISA, read-out: IL-β (IC50 μM)
Procedure: Experiment 1 (Inhibitory Activity against Interleukin-1β Production)
Inhibitory activity of the compounds of the present invention, which are represented by the formula (I), against interleukin-1β production was tested by the following experiment:
HL-60 cells were cultured for 4 days until confluence on RPMI 1640 medium with 10% fetal bovine serum (FBS) added thereto. The medium was centrifuged. The supernatant was discarded, and the cells were then suspended at 1×10^6 cells/ml on RPMI 1640 medium with 3% FBS, and lipopolysaccharide was added to give a final concentration of 10 μg/ml . The culture was inoculated at 1 ml/well to a 24-well plate. A test compound was added at 1 μl/well, followed by culturing for 3 days. Three days later, the amount of interleukin-1β in each culture was determined by ELISA. Each IC50 value was determined by a comparison in yield with a control to which no test compound was added.

Row | Compound | IC50 [µM]
14 | COc1ccc(-c2cc(Oc3c(F)c(F)cc(F)c3F)nnc2-c2ccc(OC)cc2)cc1 [Example 11, 3,4-bis(4-methoxyphenyl)-6-(2,3,5,6-tetrafluorophenoxy)pyridazine] | 0.19
15 | COc1ccc(-c2cc(Oc3c(F)c(F)c(F)c(F)c3F)nnc2-c2ccc(OC)cc2)cc1 [Example 12, 3,4-bis(4-methoxyphenyl)-6(2,3,4,5,6-pentafluorophenoxy)pyridazine] | 0.04
16 | COc1ccc(-c2cc(Oc3ccc([N+](=O)[O-])cc3)nnc2-c2ccc(OC)cc2)cc1 [Example 17, 3,4-bis(4-methoxyphenyl)-6-(4-nitrophenoxy)pyridazine] | 0.63
17 | COc1ccc(-c2nnc(Oc3ccc(F)cc3F)cc2-c2ccncc2)cc1 [Example 23, 6-(2,4-difluorophenoxy)-3-(4-methoxyphenyl)-4-(4-pyridyl)pyridazine] | 0.96
18 | COc1ccc(-c2nnc(Oc3cccc(F)c3F)cc2-c2ccccc2)cc1 [Example 25, 6-(2,3-difluorophenoxy)-3-(4-methoxyphenyl)-4-phenylpyridazine] | 0.32
19 | COc1ccc(-c2nnc(Oc3ccc(F)cc3F)cc2-c2ccccc2)cc1 [Example 26, 6-(2,4-difluorophenoxy)-3-(4-methoxyphenyl)-4-phenylpyridazine] | 0.31
20 | COc1ccc(-c2nnc(Oc3c(F)c(F)c(F)c(F)c3F)cc2-c2ccccc2)cc1 [Example 27, 3-(4-methoxyphenyl)-6-(2,3,4,5,6-pentafluorophenoxy)-4-phenylpyridazine] | 0.01
21 | CSc1ccc(-c2nnc(Sc3ccccc3)cc2-c2ccc(Sc3ccccc3)cc2)cc1 [Example 32, 3-[4-(methylthio)phenyl]-6-phenylthio-4-[4-(phenylthio)phenyl]pyridazine] | 0.94
22 | CSc1ccc(-c2nnc(Oc3ccc(F)cc3F)cc2-c2ccc(Cl)cc2)cc1 [Example 33, 4-(4-chlorophenyl)-6-(2,4-difluorophenoxy)-3-[4-(methylthio)phenyl]pyridazine] | 0.26
23 | COc1ccc(-c2nnc(C#N)cc2-c2ccccc2)cc1 [Example 66, 6-cyano-3-(4-methoxyphenyl)-4-phenylpyridazine] | 0.68

More lines, now with the values ahead:

Row | IC50 [µM] | Compound
24 | 32.1 | COc1ccc(-c2cc(Cl)nnc2-c2ccc(OC)cc2)cc1 [Comp. Comp'd 1, reference compound]
25 | 4.16 | CCOC(=O)c1c(Cl)nnc(-c2ccc(OC)cc2)c1-c1ccc(OC)cc1 [Comp. Comp'd 2, reference compound]
26 | 0.1 | COc1ccc(-c2cc(Oc3ccccc3)nnc2-c2ccc(OC)cc2)cc1 [Example 3, 3,4-bis(4-methoxyphenyl)-6-(phenoxy)pyridazine]
27 | 0.12 | COc1ccc(-c2cc(Oc3cccc(F)c3F)nnc2-c2ccc(OC)cc2)cc1 [Example 5, 3,4-bis(4-methoxyphenyl)-6-(2,3-difluorophenoxy)pyridazine]
28 | 0.18 | COc1ccc(-c2cc(Oc3cc(F)ccc3F)nnc2-c2ccc(OC)cc2)cc1 [Example 7, 3,4-bis(4-methoxyphenyl)-6-(2,5-difluorophenoxy)pyridazine]
29 | 0.35 | COc1ccc(-c2cc(Oc3c(F)cccc3F)nnc2-c2ccc(OC)cc2)cc1 [Example 8, 3,4-bis(4-methoxyphenyl)-6-(2,6-difluorophenoxy)pyridazine]
30 | 0.46 | COc1ccc(-c2cc(Oc3ccc(F)c(F)c3)nnc2-c2ccc(OC)cc2)cc1 [Example 9, 3,4-bis(4-methoxyphenyl)-6-(3,4-difluorophenoxy)pyridazine]
31 | 0.2 | COc1ccc(-c2cc(Sc3cc(Cl)c(Cl)c(Cl)c3)nnc2-c2ccc(OC)cc2)cc1 [Example 14, 3,4-bis(4-methoxyphenyl)-6-(3,4,5-trichlorophenylthio)pyridazine]
32 | 0.45 | COc1ccc(Oc2cc(-c3ccc(OC)cc3)c(-c3ccc(OC)cc3)nn2)cc1 [Example 15, 3,4-bis(4-methoxyphenyl)-6-(4-methoxyphenoxy)pyridazine]
33 | 0.15 | COc1ccc(-c2cc(Oc3ccccc3C#N)nnc2-c2ccc(OC)cc2)cc1 [Example 18, 3,4-bis(4-methoxyphenyl)-6-(2-cyanophenoxy)pyridazine]
34 | 0.16 | COc1ccc(-c2cc(Oc3cccc(C#N)c3)nnc2-c2ccc(OC)cc2)cc1 [Example 19, 3,4-bis(4-methoxyphenyl)-6-(3-cyanophenoxy)pyridazine]
35 | 0.09 | COc1ccc(-c2cc(C#N)nnc2-c2ccc(OC)cc2)cc1 [Example 51, 3,4-bis-(4-methoxyphenyl)-6-cyanopyridazine]
